Measurements as given in patent US20150105252A1, “SUBSTITUTED PYRAZOLES AS HERBICIDES” (E I DU PONT DE NEMOURS AND COMPANY, priority 2013, published 2015).

Columns and labels:
[1] = test system: crabgrass, large; test: Test A preemergence; format: in vivo, Digitaria sanguinalis; conditions: preemergence; for Crabgrass, Large plant response rating (0 to 100 scale): 125 g ai/ha, visual injury approx. 10 days after treatment; for Crabgrass, Large plant response rating: 500 g ai/ha, visual injury after approx. 10 days, 0 to 100 scale (0 no effect, 100 complete control)
How it was run: (§1)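 Injury readout: eye-scored versus untreated controls, 0 to 100. Exposure period: ~10 days, greenhouse. Application: soil-directed spray over sown seed (pre) or spray on seedlings 2–10 cm tall with one or two leaves (post), compound carried in non-phytotoxic solvent including surfactant.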

[2] = test system: ducksalad; test: Test B flood; format: in vivo, Heteranthera limosa; conditions: 250 g ai/ha, visual rating on 0 to 100 scale (0 no effect, 100 complete control), 13 to 15 days
How it was run: (§2)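 Response scored visually, 0–100 relative to controls, 13–15 days after the compound was applied into paddy water; plants were at the 2-leaf stage in pots kept flooded to 3 cm.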

[3] = test system: pigweed; test: Test A postemergence; format: in vivo, Amaranthus retroflexus
How it was run: as §1

[4] = test system: pigweed; test: Test A preemergence; format: in vivo, Amaranthus retroflexus; conditions: preemergence; for Pigweed plant response rating (0 to 100 scale): 125 g ai/ha, visual injury approx. 10 days after treatment; for Pigweed plant response rating: 500 g ai/ha, visual injury after approx. 10 days, 0 to 100 scale (0 no effect, 100 complete control)
How it was run: as §1

[5] = test system: sedge, umbrella; test: Test B flood; format: in vivo, Cyperus difformis; conditions: 250 g ai/ha, visual rating on 0 to 100 scale (0 no effect, 100 complete control), 13 to 15 days
How it was run: as §2

[6] = test system: velvetleaf; test: Test A postemergence; format: in vivo, Abutilon theophrasti
How it was run: as §1

[7] = test system: foxtail, giant; test: Test A preemergence; format: in vivo, Setaria faberii; conditions: preemergence; for Foxtail, Giant plant response rating (0 to 100 scale): 125 g ai/ha, visual injury approx. 10 days after treatment; for Foxtail, Giant plant response rating: 500 g ai/ha, visual injury after approx. 10 days, 0 to 100 scale (0 no effect, 100 complete control)
How it was run: as §1

[8] = test system: barnyardgrass; test: Test B flood; format: in vivo, Echinochloa crus-galli; conditions: 250 g ai/ha, visual rating on 0 to 100 scale (0 no effect, 100 complete control), 13 to 15 days
How it was run: as §2

[9] = test system: rice; test: Test B flood; format: in vivo, Oryza sativa; conditions: 250 g ai/ha, visual rating on 0 to 100 scale (0 no effect, 100 complete control), 13 to 15 days
How it was run: as §2

[10] = test system: morningglory; test: Test A postemergence; format: in vivo, Ipomoea spp.
How it was run: as §1

[11] = test system: crabgrass, large; test: Test A postemergence; format: in vivo, Digitaria sanguinalis
How it was run: as §1

[12] = test system: wheat; test: Test A preemergence; format: in vivo, Triticum aestivum; conditions: preemergence; for Wheat plant response rating (0 to 100 scale): 125 g ai/ha, visual injury approx. 10 days after treatment; for Wheat plant response rating: 500 g ai/ha, visual injury after approx. 10 days, 0 to 100 scale (0 no effect, 100 complete control)
How it was run: as §1

[13] = test system: foxtail, giant; test: Test A postemergence; format: in vivo, Setaria faberii
How it was run: as §1

[14] = test system: wheat; test: Test A postemergence; format: in vivo, Triticum aestivum
How it was run: as §1

[15] = test system: barnyardgrass; test: Test A preemergence; format: in vivo, Echinochloa crus-galli; conditions: preemergence
How it was run: as §1

[16] = test system: barnyardgrass; test: Test A postemergence; format: in vivo, Echinochloa crus-galli
How it was run: as §1

[17] = test system: corn; test: Test A preemergence; format: in vivo, Zea mays; conditions: preemergence; for Corn plant response rating (0 to 100 scale): 125 g ai/ha, visual injury approx. 10 days after treatment; for Corn plant response rating: 500 g ai/ha, visual injury after approx. 10 days, 0 to 100 scale (0 no effect, 100 complete control)
How it was run: as §1

[18] = test system: velvetleaf; test: Test A preemergence; format: in vivo, Abutilon theophrasti; conditions: preemergence; for Velvetleaf plant response rating (0 to 100 scale): 125 g ai/ha, visual injury approx. 10 days after treatment; for Velvetleaf plant response rating: 500 g ai/ha, visual injury after approx. 10 days, 0 to 100 scale (0 no effect, 100 complete control)
How it was run: as §1

[19] = test system: morningglory; test: Test A preemergence; format: in vivo, Ipomoea spp.; conditions: preemergence; for Morningglory plant response rating (0 to 100 scale): 125 g ai/ha, visual injury approx. 10 days after treatment; for Morningglory plant response rating: 500 g ai/ha, visual injury after approx. 10 days, 0 to 100 scale (0 no effect, 100 complete control)
How it was run: as §1

[20] = test system: corn; test: Test A postemergence; format: in vivo, Zea mays
How it was run: as §1

[21] = Postemergence, 500 g ai/ha, 0 to 100 scale (0 no effect, 100 complete control)
[22] = postemergence, 125 g ai/ha, about 10 days, visual rating on 0 to 100 scale (0 no effect, 100 complete control)
[23] = 125 g ai/ha, visual injury, 0 to 100 scale, approx. 10 days
[24] = 500 g ai/ha, visual injury after approx. 10 days, 0 to 100 scale (0 no effect, 100 complete control)

CCCCc1cc(C(=O)NCC(F)(F)F)nn1Cc1ccnc(C(F)(F)F)c1 [Compound 148]
Crabgrass, Large plant response rating (0 to 100 scale) [1]: 50 | Crabgrass, Large plant response rating [1]: 100 | Plant response rating, Ducksalad [2]: 30 | Pigweed plant response rating [3, 21]: 100 | Pigweed plant response rating [3, 22]: 90 | Pigweed plant response rating (0 to 100 scale) [4]: 100 | Pigweed plant response rating [4]: 100 | Plant response rating, Sedge, Umbrella [5]: 40 | Velvetleaf plant response rating [6, 21]: 60 | Velvetleaf plant response rating [6, 22]: 20 | Foxtail, Giant plant response rating (0 to 100 scale) [7]: 10 | Foxtail, Giant plant response rating [7]: 90 | Plant response rating, Barnyardgrass [8]: 0 | Plant response rating, Rice [9]: 15 | Morningglory plant response rating [10, 21]: 90 | Morningglory plant response rating [10, 22]: 80 | Crabgrass, Large plant response rating [11, 21]: 50 | Crabgrass, Large plant response rating [11, 22]: 20 | Wheat plant response rating (0 to 100 scale) [12]: 0 | Wheat plant response rating [12]: 0 | Foxtail, Giant plant response rating [13, 21]: 40 | Foxtail, Giant plant response rating [13, 22]: 10 | Wheat plant response rating [14, 21]: 20 | Wheat plant response rating [14, 22]: 0 | Barnyardgrass plant response rating [15, 23]: 10 | Barnyardgrass plant response rating [15, 24]: 40 | Barnyardgrass plant response rating [16, 21]: 40 | Barnyardgrass plant response rating [16, 22]: 10 | Corn plant response rating (0 to 100 scale) [17]: 0 | Corn plant response rating [17]: 0 | Velvetleaf plant response rating (0 to 100 scale) [18]: 0 | Velvetleaf plant response rating [18]: 20 | Morningglory plant response rating (0 to 100 scale) [19]: 0 | Morningglory plant response rating [19]: 30 | Corn plant response rating [20, 21]: 40 | Corn plant response rating [20, 22]: 10

CCCc1cc(C(=O)Nc2ccc(F)cc2)nn1Cc1cc(C(F)(F)F)nn1C [Compound 150]
Crabgrass, Large plant response rating (0 to 100 scale) [1]: 0 | Crabgrass, Large plant response rating [1]: 20 | Plant response rating, Ducksalad [2]: 0 | Pigweed plant response rating [3, 21]: 80 | Pigweed plant response rating [3, 22]: 30 | Pigweed plant response rating (0 to 100 scale) [4]: 50 | Pigweed plant response rating [4]: 100 | Plant response rating, Sedge, Umbrella [5]: 65 | Velvetleaf plant response rating [6, 21]: 10 | Velvetleaf plant response rating [6, 22]: 10 | Foxtail, Giant plant response rating (0 to 100 scale) [7]: 0 | Foxtail, Giant plant response rating [7]: 20 | Plant response rating, Barnyardgrass [8]: 0 | Plant response rating, Rice [9]: 15 | Morningglory plant response rating [10, 21]: 30 | Morningglory plant response rating [10, 22]: 30 | Crabgrass, Large plant response rating [11, 21]: 10 | Crabgrass, Large plant response rating [11, 22]: 10 | Wheat plant response rating (0 to 100 scale) [12]: 0 | Wheat plant response rating [12]: 0 | Foxtail, Giant plant response rating [13, 21]: 10 | Foxtail, Giant plant response rating [13, 22]: 0 | Wheat plant response rating [14, 21]: 0 | Wheat plant response rating [14, 22]: 0 | Barnyardgrass plant response rating [15, 23]: 0 | Barnyardgrass plant response rating [15, 24]: 0 | Barnyardgrass plant response rating [16, 21]: 20 | Barnyardgrass plant response rating [16, 22]: 0 | Corn plant response rating (0 to 100 scale) [17]: 0 | Corn plant response rating [17]: 0 | Velvetleaf plant response rating (0 to 100 scale) [18]: 0 | Velvetleaf plant response rating [18]: 0 | Morningglory plant response rating (0 to 100 scale) [19]: 0 | Morningglory plant response rating [19]: 0 | Corn plant response rating [20, 21]: 10 | Corn plant response rating [20, 22]: 0

CCCCc1cc(C(=O)NC2CC2)nn1Cc1ccnc(C(F)(F)F)c1 [Compound 151]
Crabgrass, Large plant response rating (0 to 100 scale) [1]: 80 | Crabgrass, Large plant response rating [1]: 100 | Plant response rating, Ducksalad [2]: 0 | Pigweed plant response rating [3, 21]: 100 | Pigweed plant response rating [3, 22]: 70 | Pigweed plant response rating (0 to 100 scale) [4]: 70 | Pigweed plant response rating [4]: 100 | Plant response rating, Sedge, Umbrella [5]: 60 | Velvetleaf plant response rating [6, 21]: 60 | Velvetleaf plant response rating [6, 22]: 30 | Foxtail, Giant plant response rating (0 to 100 scale) [7]: 50 | Foxtail, Giant plant response rating [7]: 100 | Plant response rating, Barnyardgrass [8]: 0 | Plant response rating, Rice [9]: 0 | Morningglory plant response rating [10, 21]: 90 | Morningglory plant response rating [10, 22]: 50 | Crabgrass, Large plant response rating [11, 21]: 80 | Crabgrass, Large plant response rating [11, 22]: 30 | Wheat plant response rating (0 to 100 scale) [12]: 0 | Wheat plant response rating [12]: 10 | Foxtail, Giant plant response rating [13, 21]: 70 | Foxtail, Giant plant response rating [13, 22]: 20 | Wheat plant response rating [14, 21]: 10 | Wheat plant response rating [14, 22]: 0 | Barnyardgrass plant response rating [15, 23]: 0 | Barnyardgrass plant response rating [15, 24]: 60 | Barnyardgrass plant response rating [16, 21]: 50 | Barnyardgrass plant response rating [16, 22]: 10 | Corn plant response rating (0 to 100 scale) [17]: 0 | Corn plant response rating [17]: 0 | Velvetleaf plant response rating (0 to 100 scale) [18]: 0 | Velvetleaf plant response rating [18]: 70 | Morningglory plant response rating (0 to 100 scale) [19]: 0 | Morningglory plant response rating [19]: 30 | Corn plant response rating [20, 21]: 50 | Corn plant response rating [20, 22]: 10
